Patent US10144730B2, “Inhibitors of c-Jun-N-terminal kinase (JNK)” (Dana-Farber Cancer Institute, Inc., priority 2011, dated 2018)

Key:
[1] = target: panel of 442 distinct kinases; test: KINOMEscan kinase-binding panel; settings: screening concentration of 1 μM
AKT2 = AKT2 (Homo sapiens, UniProt P31751); test: AKT2 follow-up enzymatic assay; assay type: biochemical; settings: follow-up enzymatic assay (FIG. 12)
Text: This high in vitro selectivity however differed markedly from the large number of targets detected by KiNativ.

phosphorylation of Akt = test: High-throughput microscopy, phosphorylation of Akt; assay type: cell-based; settings: Homo sapiens, A-375, A375 cells, IGF-1 stimulation, read-out: Cellular EC50 pAkt
Protocol: (§1) A375 cells were stimulated with anisomycin (FIGS. 14A and 14C to 14F), IGF-1 (FIG. 14B), IL-6 (FIG. 14G), and TNF-α (FIG. 14H) for sixty minutes. The output of multiple signaling pathways was measured using high throughput microscopy at multiple concentrations of four JNK inhibitors and a control compound specific to each pathway DMSO (FIG. 14A), MK2206 (allosteric Akt inhibitor, Haoyuan Chemexpress Co., Limited. Hirai, et al., 2010) (FIG. 14B), PD0325901 (allosteric Mek inhibitor, Haoyuan Chemexpress Co., Limited. Barrett, et al., 2008) (FIGS. 14C and 14D), SB239063 (ATP-competitive p38 inhibitor, Haoyuan Chemexpress Co., Limited. Underwood et al., 2000) (FIGS. 14E and 14F), KIN001-040 (ATP-competitive JAK1,2,3 inhibitor, Haoyuan Chemexpress Co., Limited. Thompson et al., 2002) (FIG. 14G), and KIN001-208 (IKK inhibitor VIII, Haoyuan Chemexpress Co., Limited., Murata, et al., 2004) (FIG. 14H).
(§2) Cells were plated at 7500 cells/well in 96-well microscopy plates (Corning) in recommended media for 24 hours, and then starved in media lacking serum for 16 hours. Cells were pre-treated for 180 minutes with 10-fold stock solutions of JNK inhibitors and for 10 min with control compounds MK2206, PD0325901, SB239063, KIN040, and KIN208 and treated with 10-fold stock solutions of IGF-1, IL-6, TNF-α (all PeproTech), or anisomycin for 60 minutes. Cells were fixed in 2% paraformaldehyde for 10 min at room temperature and washed with PBS-T (Phosphate Buffered Saline, 0.1% Tween 20). Cells were permeabilized in methanol for 10 min at room temperature, washed with PBS-T, and blocked in Odyssey Blocking Buffer (LI-COR Biosciences) for 1 hour at room temperature. Cells were incubated overnight at 4° C. with antibody specific for Erk1/2(pT202/pY204), Akt(pS473), c-Jun(pS73), pP38(T180/Y182) and pSTAT3(Y705) (Cell Signaling Technology), pRSK1(S380) and pMSK1(S376) (Epitomics), and NF-κB (Santa Cruz Biotechnology) diluted 1:400 in Odyssey Blocking Buffer. Cells were washed three times in PBS-T and incubated with rabbit-specific secondary antibody labeled with Alexa Fluor 647 (Invitrogen) diluted 1:2000 in Odyssey Blocking Buffer. Cells were washed once in PBS-T and once in PBS and incubated in 250 ng/ml Hoechst 33342 (Invitrogen) and 1:1000 Whole Cell Stain (blue; Thermo Scientific) solution. Cells were washed twice with PBS and imaged in an imageWoRx high-throughput microscope (Applied Precision). Data were plotted using DataPflex. […]

phosphorylation of STAT3 = test: High-throughput microscopy, phosphorylation of STAT3; assay type: cell-based; settings: Homo sapiens, A-375, A375 cells, IL-6 stimulation, read-out: Cellular EC50 pSTAT3
Protocol: as §1, §2

JNK3 = JNK3 (Homo sapiens, UniProt P53779); test: Biochemical JNK3 kinase inhibition (Z'-lyte format); settings: Table 2
phosphorylation of p38 = test: High-throughput microscopy, phosphorylation of p38; assay type: cell-based; settings: Homo sapiens, A-375, A375 cells, anisomycin stimulation, read-out: Cellular EC50 pP38
Protocol: as §1, §2

IRAK1 = IRAK1 (Homo sapiens, UniProt P51617); test: IRAK1 biochemical kinase assay; settings: biochemical / follow-up enzymatic assay; read-out: IC50 against IRAK1
[2] = test system: NF-kB nuclear translocation; test: High-throughput microscopy, NF-kB nuclear translocation; assay type: cell-based; settings: Homo sapiens, A-375, A375 cells, TNF-α stimulation, read-out: Cellular EC50 NF-kB
Protocol: as §1, §2

c-Jun phosphorylation = test: Western blot of anisomycin-stimulated phosphorylation in HEK293-IL1R cells; assay type: cell-based
Protocol: FIGS. 16A and 16B depict Western blot results. […] Cell lysates were prepared, resolved by SDS-PAGE, and p-c-Jun (Ser63) and p-JNK were monitored by Western blot.
HEK-293 cells stably expressing Interleukin Receptor 1 (HEK293-IL1R) were cultured in Dulbecco's Modified Eagle's medium (DMEM) supplemented with 10% FBS, 2 mM glutamine and 1× antimycotic/antibiotic solution. Cells were serum starved for 18 h before incubation with DMSO or different inhibitors, stimulated with 2 μM anisomycin (Sigma) for 1 h, and lysates were clarified by centrifugation for 10 min at 16000 g and 4° C.
Rabbit polyclonal antibodies against total pan JNK isoforms ((#9252), phospho-pan JNK isoforms (Thr183/Tyr185), (#4668), total p38 (#9212) or phospho-p38 MAPK (Thr180/Tyr182), (4631 resp.), total c-Jun (#9165), phospho-c-Jun (Ser63) (#9261), and phospho-MSK1 (Ser376) (#9591) were from Cell Signalling technology.
Cell lysates (30 μg) were resolved by electrophoresis on SDS polyacrylamide gels (10%) or Novex 4-12% gradient gels, and electroblotted to nitrocellulose membranes. Membranes were blocked with 5% skimmed milk (w/v) in 50 mM Tris/HCl (pH 7.5) 0.15 M NaCl, and 0.1% (v/v) Tween (TBST Buffer). Primary antibodies were used at a concentration of 1 μg/ml, diluted in 5% skimmed milk in TBST, and incubated overnight at 4° C. […]

IRAK1, sequence (P51617 whole entry): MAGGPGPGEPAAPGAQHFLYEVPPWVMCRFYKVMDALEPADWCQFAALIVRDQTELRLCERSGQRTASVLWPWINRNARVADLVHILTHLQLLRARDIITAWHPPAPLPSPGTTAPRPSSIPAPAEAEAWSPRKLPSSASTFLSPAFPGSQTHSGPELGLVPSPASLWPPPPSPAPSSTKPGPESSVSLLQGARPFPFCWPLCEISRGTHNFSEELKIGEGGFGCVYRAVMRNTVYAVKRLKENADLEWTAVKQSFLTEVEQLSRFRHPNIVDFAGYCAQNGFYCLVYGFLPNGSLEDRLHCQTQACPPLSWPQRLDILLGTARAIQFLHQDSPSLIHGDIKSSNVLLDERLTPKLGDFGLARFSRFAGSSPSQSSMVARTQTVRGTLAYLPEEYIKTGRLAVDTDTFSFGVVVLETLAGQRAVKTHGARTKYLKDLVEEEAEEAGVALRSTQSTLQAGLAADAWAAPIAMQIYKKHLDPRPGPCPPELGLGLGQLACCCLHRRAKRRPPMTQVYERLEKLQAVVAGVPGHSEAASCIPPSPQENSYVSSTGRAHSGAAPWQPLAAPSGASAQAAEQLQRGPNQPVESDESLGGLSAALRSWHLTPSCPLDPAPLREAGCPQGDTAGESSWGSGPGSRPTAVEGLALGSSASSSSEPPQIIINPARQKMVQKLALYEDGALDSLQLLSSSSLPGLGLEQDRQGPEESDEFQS
JNK3, sequence (P53779 whole entry): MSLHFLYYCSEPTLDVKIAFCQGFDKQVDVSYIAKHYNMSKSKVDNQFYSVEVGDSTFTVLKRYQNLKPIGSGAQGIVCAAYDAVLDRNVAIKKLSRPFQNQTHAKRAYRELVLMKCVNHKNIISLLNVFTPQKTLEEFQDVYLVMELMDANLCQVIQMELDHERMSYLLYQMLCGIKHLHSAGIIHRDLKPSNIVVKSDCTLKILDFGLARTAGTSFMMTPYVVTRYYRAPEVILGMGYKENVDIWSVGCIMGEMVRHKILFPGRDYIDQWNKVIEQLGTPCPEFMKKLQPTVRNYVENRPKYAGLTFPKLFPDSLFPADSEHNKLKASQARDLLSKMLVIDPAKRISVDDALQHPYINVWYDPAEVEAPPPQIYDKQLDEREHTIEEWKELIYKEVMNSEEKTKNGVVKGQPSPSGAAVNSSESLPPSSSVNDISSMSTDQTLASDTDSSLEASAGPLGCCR
AKT2, sequence (P31751 whole entry, species assumed): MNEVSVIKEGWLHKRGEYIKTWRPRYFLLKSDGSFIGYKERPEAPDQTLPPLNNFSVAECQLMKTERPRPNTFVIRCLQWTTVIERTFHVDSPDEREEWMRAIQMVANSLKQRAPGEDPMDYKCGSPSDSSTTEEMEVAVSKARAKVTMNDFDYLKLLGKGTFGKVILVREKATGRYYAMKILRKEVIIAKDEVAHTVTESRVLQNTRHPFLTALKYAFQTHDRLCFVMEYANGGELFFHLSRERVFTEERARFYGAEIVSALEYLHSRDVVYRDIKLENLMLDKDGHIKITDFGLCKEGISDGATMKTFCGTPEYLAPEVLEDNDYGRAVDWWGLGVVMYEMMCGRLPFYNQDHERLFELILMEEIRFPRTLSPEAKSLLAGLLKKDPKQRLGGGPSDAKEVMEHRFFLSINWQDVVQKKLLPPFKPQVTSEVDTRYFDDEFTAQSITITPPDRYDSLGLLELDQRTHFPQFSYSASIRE

KINOMEscan S score (ratio number of kinases inhibited more than 90 percent) [1]	IC50 (AKT2)	EC50 (phosphorylation of Akt)	EC50 (phosphorylation of STAT3)	IC50 (JNK3)	EC50 (phosphorylation of p38)	IC50 (IRAK1)	EC50 [2]	Compound	time for inhibition of JNK in cells to reach completion (c-Jun phosphorylation; HEK293-ILR1 cells (FIGS. 16A and 16B))	reversal of inhibition of c-Jun phosphorylation after removal of inhibitor (washout) (c-Jun phosphorylation; HEK293-ILR1 cells, three hours treatment then washout)
0.025	0.0899 µM	> 10 µM	> 10 µM	11 nM	> 10 µM	0.0376 µM	> 10 µM	CN(C)C/C=C/C(=O)Nc1cccc(C(=O)Nc2ccc(Nc3nccc(/C(C#N)=C4\Nc5ccccc5S4)n3)cc2)c1 [JNK-IN-12]		
		> 10 µM	> 10 µM		> 10 µM		> 10 µM	Cc1cc(NC(=O)c2cccc(NC(=O)/C=C/CN(C)C)c2)ccc1Nc1nccc(-c2cccnc2)n1 [JNK-IN-8]	approximately 3 hours	not reversed
